Measured values as given in patent publication US20190175766A1, “STABILIZED CROSSLINKED NANOBUBBLES FOR DIAGNOSTIC AND THERAPEUTIC APPLICATIONS” (CASE WESTERN RESERVE UNIVERSITY, priority 2016, published 2019).

What was measured:
LS174T cell line = assay: Cell toxicity test (WST-1); format: cell-based, human
Protocol: LS174-T human colorectal adenocarcinoma cells (ATCC, Manassas, Va.) were cultured in complete MEM medium (10% fetal bovine serum, 1% penicillin-streptomycin; Invitrogen, Carlsbad, Calif.) and placed in a humidified atmosphere at 37° C. and 5% CO2. Cells were passaged until they were 90% confluent, then detached with 0.25% trypsin-EDTA (Invitrogen, Carlsbad, Calif.).
One day prior to the treatment, cells were passaged at confluence and plated in flat bottom, clear, cell culture treated 96-well plates (Falcon, Franklin Lakes, N.J.) using a cell density of 2.5×10^4 cells/ml, 100 ul for each well overnight. After 24 h of incubation, the surface medium were aspirated carefully and cells were treated for 3 h as following groups: • 1 No treat Incomplete MEM medium were added. • 2. Dox 1 μg/ml Doxorubicin in incomplete MEM medium were added. • 3. Dox-NB 2000 times diluted original Dox-NB in incomplete MEM medium were added. • 4. […]
Plate wells were filled with relevant treatment medium, sealed with Parafilm® M (Fisher Scientific; Pittsburgh, Pa.), then inverted the plate to ensure the cells contact with Dox-NB for 20 min. […] After that, 1:10 diluted solution of WST-1 reagent ( ) replaced the medium and incubated for 1 h and then the plate was scanned with a TECAN plate reader (infinite M200, San Jose, Calif.) at 450 nm.

LS174-T cells = assay: Measurement of intracellular drug uptake; format: cell-based, human; settings: with and without TUS
Protocol: LS174-T cells were grown in a 12-well cell culture plate at a cell concentration of 2.5×10^4 cells/ml one day before the treatment. The treatment groups were the same as cell toxicity test above. After 2 h treatment in incubator, the drugs were aspirated and washed with sterile PBS 3 times. The attached cells were fixed with 3% formaldehyde solution for 10 min. After 3 times wash with PBS, the cells of different treatment groups were imaged at 5× and 20× on the Zeiss Axio Observer Z1 motorized FL microscope with the same parameter and scanned zones. Average Dox fluorescence of cells in different treatment groups was calculated by ImageJ.

SMILES: COc1cccc2c1C(=O)c1c(O)c3c(c(O)c1C2=O)C[C@@](O)(C(=O)CO)C[C@@H]3O[C@H]1C[C@H](N)[C@H](O)[C@H](C)O1 [Dox, Doxorubicin]
- Fluorescence value (cell viability test) (LS174T cell line; plus therapeutic ultrasound (TUS) 3 MHz, 2 W/cm2, 1 min): 0.28 ± 0.06
- Fluorescence value (cell viability test) (LS174T cell line; without TUS, Dox 1 μg/ml, Dox-NB 2000 times diluted): 0.36 ± 0.10
- location of Dox in treated cells (LS174-T cells): mainly located in nuclei
